Values quoted from earlier work in publication PMC2912428 (Bioconjugate chemistry, 2010).

Tested on: SAv-Y43A
Details: SAv-Y43A vs WT SAv ref 21

O=C(O)CCCC[C@@H]1SC[C@@H]2NC(=O)N[C@@H]21 [biotin, D-biotin]
lower affinity of SAv-Y43A than wild-type SAv: 67 fold
